Data: patent US9296720B2, “Carboxamide-substituted heteroaryl-pyrazoles and the use thereof” (AiCuris GmbH & Co. KG, priority 2011, dated 2016)

How the values were obtained:
Type in all cases: cell-based
HIV-1NL4-3 Wild Type = assay: Luminescence reduction assay, MT4 cells infected with HIV-1NL4-3 luciferase reporter virus, wild type; settings: Human immunodeficiency virus 1, MT4, MT4 cells, 2% FCS
How it was run: (§1)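 Compound dilution series in 1% DMSO, with 2% or 10% FCS, incubated 5 days at 37° C/5% CO2 with MT4 cells previously pellet-infected (2 h) by luciferase reporter NL4-3 virus, wild type or carrying RT resistance mutations. EC50 taken where luminescence from secreted luciferase falls to 50% of untreated infected control.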

HIV-1NL4-3 K103N-Y181C = assay: Luminescence reduction assay, MT4 cells infected with HIV-1NL4-3 luciferase reporter virus, RT mutant K103N-Y181C; settings: Human immunodeficiency virus 1, MT4, read-out: EC50 (μM) MT4 Cells HIV-1NL4-3 K103N-Y181C 2% FCS, MT4 cells, HIV-1NL4-3 K103N-Y181C, 2% FCS
How it was run: as §1

HIV-1LAI Wild Type = assay: AlamarBlue viability assay, HIV-1LAI-infected MT4 cells; settings: Human immunodeficiency virus 1, MT4, MT4 cells, 10% FCS
How it was run: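 MT4 cells infected with HIV-1LAI (MOI 0.01, supernatant infection) cultured 5 days at 37 °C with compounds in RPMI with 2% or 10% FCS, 1% DMSO final. AlamarBlue fluorescence after 3 h; EC50 as 50% protection relative to uninfected cells, CC50 from high-concentration cytotoxicity.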

Structure (SMILES)	EC50 (HIV-1NL4-3 Wild Type)	EC50 (HIV-1NL4-3 K103N-Y181C)	EC50 (HIV-1LAI Wild Type)
Cc1cc(-n2nc(C(=O)N3CCNC(=O)C3)cc2-c2cc(F)cc(Cl)c2)ccn1 [Example 22, 4-{[5-(3-Chloro-5-fluorophenyl)-1-(2-methylpyridin-4-yl)-1H-pyrazol-3-yl]carbonyl}piperazin-2-one]	0.375 µM	> 3.3 µM	3.18 µM
O=C(c1cc(-c2cc(Br)cc(OC(F)(F)F)c2)n(-c2ccnc(C(F)(F)F)c2)n1)N1CCSC1 [Example 117, {5-[3-Bromo-5-(trifluoromethoxy)phenyl]-1-[2-(trifluoromethyl)pyridin-4-yl]-1H-pyrazol-3-yl}(1,3-thiazolidin-3-yl)methanone]	1.28 µM	≥ 3.3 µM	> 3.3 µM
O=C1CN(C(=O)c2cc(-c3cncc(F)c3)n(-c3ccc(F)c(Cl)c3)n2)CN1 [Example 98, 1-{[1-(3-Chloro-4-fluorophenyl)-5-(5-fluoropyridin-3-yl)-1H-pyrazol-3-yl]carbonyl}imidazolidin-4-one]	0.018 µM	0.032 µM	0.056 µM
O=C(c1cc(-c2cc(F)cc(OCC(F)(F)F)c2)n(-c2cccnc2)n1)N1CCSC1 [Example 72, {5-[3-Fluoro-5-(2,2,2-trifluoroethoxy)phenyl]-1-(pyridin-3-yl)-1H-pyrazol-3-yl}(1,3-thiazolidin-3-yl)methanone]	0.038 µM	> 3.3 µM	0.585 µM
O=C(c1cc(-c2cc(F)cc(OCC(F)(F)F)c2)n(-c2ccc[n+]([O-])c2)n1)N1CCS(=O)(=O)C1 [Example 75, (1,1-Dioxido-1,3-thiazolidin-3-yl) {5-[3-fluoro-5-(2,2,2-trifluoroethoxy)phenyl]-1-(1-oxidopyridin-3-yl)-1H-pyrazol-3-yl}methanone]	0.272 µM	> 3.3 µM	> 3.3 µM
O=C(c1cc(-c2cc(Br)cc(OC(F)(F)F)c2)n(-c2ccnc(C(F)(F)F)c2)n1)N1CCS(=O)(=O)C1 [Example 52, {5-[3-Bromo-5-(trifluoromethoxy)phenyl]-1-[2-(trifluoromethyl)pyridin-4-yl]-1H-pyrazol-3-yl}(1,1-dioxido-1,3-thiazolidin-3-yl)methanone]	0.376 µM	0.74 µM	> 3.3 µM
O=C1CN(C(=O)c2cc(-c3ccnc(Cl)c3)n(-c3ccc(F)c(Cl)c3)n2)CN1 [Example 112, 1-{[1-(3-Chloro-4-fluorophenyl)-5-(2-chloropyridin-4-yl)-1H-pyrazol-3-yl]carbonyl}imidazolidin-4-one]	0.016 µM	0.03 µM	0.079 µM
O=C(c1cc(-c2cc(Br)cc(OC(F)(F)F)c2)n(-c2ccnc(C(F)(F)F)c2)n1)N1CC[S+]([O-])C1 (stereo not drawn) [Example 51, {5-[3-Bromo-5-(trifluoromethoxy)phenyl]-1-[2-(trifluoromethyl)pyridin-4-yl]-1H-pyrazol-3-yl}(1-oxido-1,3-thiazolidin-3-yl)methanone]	0.249 µM	1.05 µM	1.93 µM
O=C1CN(C(=O)c2cc(-c3cnc(F)c(Cl)c3)n(-c3ccc(F)c(Cl)c3)n2)CN1 [Example 111, 1-{[1-(3-Chloro-4-fluorophenyl)-5-(5-chloro-6-fluoropyridin-3-yl)-1H-pyrazol-3-yl]carbonyl}imidazolidin-4-one]	0.03 µM	0.173 µM	0.024 µM
Cc1cc(-n2nc(C(=O)N3CCNC(=O)C3)cc2-c2cc(Br)cc(OC(F)(F)F)c2)ccn1 [Example 54, 4-({5-[3-Bromo-5-(trifluoromethoxy)phenyl]-1-(2-methylpyridin-4-yl)-1H-pyrazol-3-yl}carbonyl)piperazin-2-one]	0.323 µM	0.387 µM	1.68 µM
COc1cncc(-c2cc(C(=O)N3CCNC(=O)C3)nn2-c2ccc(F)c(Cl)c2)c1 [Example 103, 4-{[1-(3-Chloro-4-fluorophenyl)-5-(5-methoxypyridin-3-yl)-1H-pyrazol-3-yl]carbonyl}piperazin-2-one]	0.205 µM	0.375 µM	0.785 µM
O=C(c1cc(-c2cc(F)cc(OC(F)(F)F)c2)n(-c2ccnc(Cl)c2)n1)N1CC[S+]([O-])C1 (stereo not drawn) [Example 64, {1-(2-Chloropyridin-4-yl)-5-[3-fluoro-5-(trifluoromethoxy)phenyl]-1H-pyrazol-3-yl}(1-oxido-1,3-thiazolidin-3-yl)methanone]	0.103 µM	0.771 µM	1.55 µM
O=C(c1cc(-c2cc(Br)cc(OC(F)(F)F)c2)n(-c2cccnc2)n1)N1CCSC1 [Example 30, (5-[3-Bromo-5-(trifluoromethoxy)phenyl]-1-(pyridin-3-yl)-1H-pyrazol-3-yl) (1,3-thiazolidin-3-yl)methanone]	0.033 µM	0.181 µM	0.794 µM
O=C1CN(C(=O)c2cc(-c3cc(Br)cc(OC(F)(F)F)c3)n(-c3cccnc3)n2)CCN1 [Example 29, 4-({5-[3-Bromo-5-(trifluoromethoxy)phenyl]-1-(pyridin-3-yl)-1H-pyrazol-3-yl}carbonyl)piperazin-2-one]	0.012 µM	0.032 µM	0.097 µM
Cc1cc(-n2nc(C(=O)N3CNC(=O)C3)cc2-c2cc(F)cc(Cl)c2)ccn1 [Example 21, 1-{[5-(3-Chloro-5-fluorophenyl)-1-(2-methylpyridin-4-yl)-1H-pyrazol-3-yl]carbonyl}imidazolidin-4-one]	0.092 µM	0.436 µM	0.397 µM
COc1cc(Br)cc(-c2cc(C(=O)N3CNC(=O)C3)nn2-c2ccnc(Cl)c2)c1 [Example 96, 1-{[5-(3-Bromo-5-methoxyphenyl)-1-(2-chloropyridin-4-yl)-1H-pyrazol-3-yl]carbonyl}imidazolidin-4-one]	0.004 µM	0.02 µM	0.016 µM
O=C1CN(C(=O)c2cc(-c3cc(Br)cc(OC(F)(F)F)c3)n(-c3cncc(Cl)c3)n2)CN1 [Example 42, 1-({5-[3-Bromo-5-(trifluoromethoxy)phenyl]-1-(5-chloropyridin-3-yl)-1H-pyrazol-3-yl}carbonyl)imidazolidin-4-one]	0.018 µM	0.028 µM	0.247 µM
COc1cncc(-c2cc(C(=O)N3CNC(=O)C3)nn2-c2ccc(F)c(Cl)c2)c1 [Example 102, 1-{[1-(3-Chloro-4-fluorophenyl)-5-(5-methoxypyridin-3-yl)-1H-pyrazol-3-yl]carbonyl}imidazolidin-4-one]	0.026 µM	0.022 µM	0.111 µM
O=C(c1cc(-c2cc(Cl)cc(OC(F)(F)F)c2)n(-c2cccnc2)n1)N1CCS(=O)(=O)C1 [Example 79, {5-[3-Chloro-5-(trifluoromethoxy)phenyl]-1-(pyridin-3-yl)-1H-pyrazol-3-yl}(1,1-dioxido-1,3-thiazolidin-3-yl)methanone]	0.038 µM	0.125 µM	0.244 µM
O=C1CN(C(=O)c2cc(-c3cc(Br)cc(OC(F)(F)F)c3)n(-c3cncc(F)c3)n2)CN1 [Example 44, 1-({5-[3-Bromo-5-(trifluoromethoxy)phenyl]-1-(5-fluoropyridin-3-yl)-1H-pyrazol-3-yl}carbonyl)imidazolidin-4-one]	0.018 µM	0.02 µM	0.274 µM
